{
  "source": "patent US10537602B2",
  "about": "“Feed for fish” (NUTRECO IP ASSETS B.V., priority 2006, dated 2020)",
  "format_in_all_cases": "in vivo",
  "key": {"[1]": {"tested_on": "Atlantic salmon (Salmo salar)", "experiment": "Example 2 lipid digestibility (Apparent Digestibility Coefficient, yttrium marker)", "conditions": "for ADC (%) lipid: Example 2, Salvia = Salvia lavandulifolia extract", "procedure": "(§1) To achieve the above objects, additives that can increase the digestibility of fat and or protein are of value. This can be measured by the “Apparent Digestibility Coefficient”, calculated as: […]\n(§2) Yttrium is added to the diet for the purpose of calculating ADC, but is otherwise not a necessary component of fish feed.\n(§3) Control and comparison feeds were prepared as in Example 1. Salvia lavandulifolia salvia extract (CAS 8016-65-7) was used.\n(§4) The feed was fed to Atlantic salmon (Salmo salar) weighing 199 g (±2.4 g) at the onset of the study. The fish were stocked in tanks (1 m×1 m). There were 35 fish in each tank. Sea water temperature was 12° C. The fish were fed for 82 days. The study was run in triplicate."}, "[2]": {"tested_on": "Atlantic salmon (Salmo salar)", "experiment": "Example 1 feeding study: growth and feed conversion of fish on feed with carvacrol or Salvia officinalis extract", "conditions": "for Final weight / Feed conversion ratio / Specific growth rate: 67 days, triplicate, Salvia = Salvia officinalis extract; for Final weight: initial weight about 170 g, sea water 11.8° C.", "procedure": "(§5) Growth rate is expressed as percentage increase in body mass from day to day (Specific Growth Rate, SGR). This is calculated as:\n(§6) [formula] FinalW=final weight InitW=initial weight Days=time from measuring initial weight to final weight\n(§7) The common term to describe this is Feed Conversion Ratio (FCR) defined as: FCR=Amount of feed fed (kg)/Net growth of the fish (kg)\nA control feed was prepared from fish meal (407.4 g), soybean meal (55.8 g), corn gluten (196.1 g), wheat (88.0 g), fish oil (247.3 g), mineral and vitamin premixes (3.8 g), yttrium premix (1.0 g, used to measure lipid digestibility as discussed below) and astaxanthin preparation (0.6 g). Pellets were extruded using the process explained above and coated with the fish oil.\nTest feeds containing 0.1 wt % and 0.2 wt % carvacrol formulation (containing 50 wt % carvacrol and 50 wt % silica carrier) were prepared. The amount of active substance was 500 and 1000 mg per kg feed, respectively. In the comparison feeds, the amount of wheat was reduced to 87.0 g and 86.0 g respectively. The carvacrol formulation was added with the other microingredients to the mixer before preconditioning.\nTest feeds containing 0.1 wt % and 0.2 wt % formulation of Salvia officinalis salvia extract (containing 50 wt % salvia extract and 50 wt % silica carrier) were prepared in a similar way.\nThe feed was fed to Atlantic salmon (Salmo salar) weighing 169 g (±3 g) at the onset of the study. The fish was stocked in tanks (1 m×1 m). There were 30 fish in each tank. Sea water temperature was 11.8° C. (±0.5° C.). The fish were fed for 67 days. The study was run in triplicate."}, "[3]": {"tested_on": "Atlantic salmon (Salmo salar)", "experiment": "Example 3 apparent digestibility of protein, C16:0, saturated fatty acids and total lipid", "conditions": "for ADC protein (%) / ADC C16:0 (%) / ADC saturated fatty acids (%) / ADC total lipid (%): added as 100% oil, 96 days, one tank, Salvia lavandulifolia; for ADC protein (%): 8.9° C.", "procedure": "as §1, §2\nControl feed was prepared from South-American fish meal (526.2 g), soybean meal (40.0 g), corn gluten (79.0 g), wheat (120.4 g), South-American fish oil (230.3 g), mineral and vitamin premixes (2.5 g), yttrium premix (1.0 g), and astaxanthin preparation (0.6 g). Pellets were extruded using the process explained above and coated with the fish oil.\nTest feeds were prepared containing carvacrol and/or salvia extract (Salvia lavandulifolia). Carvacrol and/or salvia extract were each added as 100% oil. Two different inclusion levels of separate carvacrol and salvia extract (0.5 g/kg and 1.0 g/kg) were tested.\nTwo test feeds were prepared with a combination of carvacrol and salvia extract. The inclusion levels were 1.0 g carvacrol and 0.2 g/kg salvia extract, and 0.5 g/kg carvacrol and 0.5 g/kg salvia extract, respectively. The carvacrol oil and/or salvia extract was mixed with the fish oil and coated onto the surface of the pellets by vacuum coating after drying of the pellets.\nPellet size was 3 mm for all feeds.\nThe feed was fed to Atlantic salmon (Salmo salar) weighing 156 g (±13 g) at the onset of the study. The fish was stocked in tanks holding 100 L water. There were 25 fish in each tank. Sea water temperature was 8.9° C.±0.2° C. The fish were fed for 96 days. The study was run with four control groups and one tank each for the different inclusion levels of carvacrol, salvia extract or combined carvacrol and salvia.\nApparent digestibility was determined for protein, the saturated fatty acid C16:0, the sum of all saturated fatty acids and the total lipid."}, "[4]": {"tested_on": "Atlantic salmon (Salmo salar)", "experiment": "Example 2 feeding study: growth and feed conversion of fish on feed with carvacrol or Salvia lavandulifolia extract", "conditions": "for Feed conversion ratio / Specific growth rate / Final weight: 82 days, Salvia = Salvia lavandulifolia extract; for Final weight: initial weight about 199 g, sea water 12° C., triplicate", "procedure": "as §5, §6, §7, §3, §4"}, "[5]": {"conditions": "with increasing amounts in feed, Example 2, in words"}, "[6]": {"conditions": "with increasing amounts in feed, Example 1, in words"}, "[7]": {"conditions": "with increasing amounts in feed, Example 3, in words"}},
  "data": [
    {"compound": "Cc1ccc(C(C)C)cc1O", "note": "[Carvacrol, 2-methyl-5(1-methylethyl)-phenol]", "values": [
      {"measurement": "ADC (%) lipid", "setting": "[1]; 0.05 wt % additive in feed", "result": 95.78, "unit": "%"},
      {"measurement": "ADC (%) lipid", "setting": "[1]; 0.1 wt % additive in feed", "result": 97.65, "unit": "%"},
      {"measurement": "lipid digestibility", "setting": "[1]; [5]", "result": "increased"},
      {"measurement": "Final weight", "setting": "[2]; 0.05 wt % additive in feed", "result": "339 ± 18", "unit": "g"},
      {"measurement": "Feed conversion ratio", "setting": "[2]; 0.05 wt % additive in feed", "result": "0.91 ± 0.05"},
      {"measurement": "Specific growth rate", "setting": "[2]; 0.05 wt % additive in feed", "result": "1.04 ± 0.05"},
      {"measurement": "Final weight", "setting": "[2]; 0.1 wt % additive in feed", "result": "354 ± 6", "unit": "g"},
      {"measurement": "Feed conversion ratio", "setting": "[2]; 0.1 wt % additive in feed", "result": "0.87 ± 0.03"},
      {"measurement": "Specific growth rate", "setting": "[2]; 0.1 wt % additive in feed", "result": "1.09 ± 0.03"},
      {"measurement": "feed utilisation", "setting": "[2]; [6]", "result": "improved"},
      {"measurement": "fish growth", "setting": "[2]; [6]", "result": "increased"},
      {"measurement": "ADC protein (%)", "setting": "[3]; 0.05 wt % additive in feed", "result": 88.8, "unit": "%"},
      {"measurement": "ADC C16:0 (%)", "setting": "[3]; 0.05 wt % additive in feed", "result": 75.3, "unit": "%"},
      {"measurement": "ADC saturated fatty acids (%)", "setting": "[3]; 0.05 wt % additive in feed", "result": 75.5, "unit": "%"},
      {"measurement": "ADC total lipid (%)", "setting": "[3]; 0.05 wt % additive in feed", "result": 89.2, "unit": "%"},
      {"measurement": "ADC protein (%)", "setting": "[3]; 0.10 wt % additive in feed", "result": 87.6, "unit": "%"},
      {"measurement": "ADC C16:0 (%)", "setting": "[3]; 0.10 wt % additive in feed", "result": 74.0, "unit": "%"},
      {"measurement": "ADC saturated fatty acids (%)", "setting": "[3]; 0.10 wt % additive in feed", "result": 74.4, "unit": "%"},
      {"measurement": "ADC total lipid (%)", "setting": "[3]; 0.10 wt % additive in feed", "result": 89.2, "unit": "%"},
      {"measurement": "lipid digestibility", "setting": "[3]; [7]", "result": "increased"},
      {"measurement": "protein digestibility", "setting": "[3]; [7]", "result": "increased"},
      {"measurement": "Feed conversion ratio", "setting": "[4]; 0.05 wt % additive in feed", "result": 0.68},
      {"measurement": "Specific growth rate", "setting": "[4]; 0.05 wt % additive in feed", "result": 1.16},
      {"measurement": "Final weight", "setting": "[4]; 0.05 wt % additive in feed", "result": 512, "unit": "g"},
      {"measurement": "Feed conversion ratio", "setting": "[4]; 0.1 wt % additive in feed", "result": 0.70},
      {"measurement": "Specific growth rate", "setting": "[4]; 0.1 wt % additive in feed", "result": 1.13},
      {"measurement": "Final weight", "setting": "[4]; 0.1 wt % additive in feed", "result": 503, "unit": "g"},
      {"measurement": "feed utilisation", "setting": "[4]; [5]", "result": "improved"},
      {"measurement": "fish growth", "setting": "[4]; [5]", "result": "increased"}
    ]}
  ]
}
